Source: ChEMBL document CHEMBL3352665, “Trends in research of antitrypanosomal agents among synthetic heterocycles” (Eur J Med Chem, 2014)

How the values were obtained:
Cruzipain = Cruzipain (Trypanosoma cruzi, UniProt P25779); assay: Inhibition of Trypanosoma cruzi cruzain
[1] = target: Triosephosphate isomerase, glycosomal (Trypanosoma cruzi) (UniProt P52270); assay: Inhibition of Trypanosoma cruzi triosephosphate isomerase at 50 uM
Trypanosoma brucei [2] = assay: Inhibition of Trypanosoma brucei triosephosphate isomerase at 50 uM
[3] = Selectivity ratio for human triosephosphate isomerase to Trypanosoma cruzi triosephosphate isomerase
Trypanosoma brucei [4] = assay: Antitrypanosomal activity against Trypanosoma brucei assessed as growth inhibition; format: functional, organism-based
[5] = system: Trypanosoma brucei rhodesiense; assay: Antitrypanosomal activity against Trypanosoma brucei rhodesiense assessed as growth inhibition; format: functional; conditions: read-out: ED50 (the source's name)
Trypanosoma cruzi [6] = assay: Antitrypanosomal activity against epimastigote forms of Trypanosoma cruzi Y assessed as growth inhibition; format: functional, organism-based
Trypanosoma cruzi [7] = assay: Antitrypanosomal activity against Trypanosoma cruzi assessed as growth inhibition; format: functional; conditions: read-out: ED50 (the source's name)
[8] = Inhibition of Trypanosoma brucei PTR1; conditions: read-out: Ki(app)
Trypanosoma brucei [9] = assay: Antitrypanosomal activity against bloodstream forms of Trypanosoma brucei assessed as growth inhibition; format: functional, organism-based

Chain of Cruzipain (P25779 whole entry): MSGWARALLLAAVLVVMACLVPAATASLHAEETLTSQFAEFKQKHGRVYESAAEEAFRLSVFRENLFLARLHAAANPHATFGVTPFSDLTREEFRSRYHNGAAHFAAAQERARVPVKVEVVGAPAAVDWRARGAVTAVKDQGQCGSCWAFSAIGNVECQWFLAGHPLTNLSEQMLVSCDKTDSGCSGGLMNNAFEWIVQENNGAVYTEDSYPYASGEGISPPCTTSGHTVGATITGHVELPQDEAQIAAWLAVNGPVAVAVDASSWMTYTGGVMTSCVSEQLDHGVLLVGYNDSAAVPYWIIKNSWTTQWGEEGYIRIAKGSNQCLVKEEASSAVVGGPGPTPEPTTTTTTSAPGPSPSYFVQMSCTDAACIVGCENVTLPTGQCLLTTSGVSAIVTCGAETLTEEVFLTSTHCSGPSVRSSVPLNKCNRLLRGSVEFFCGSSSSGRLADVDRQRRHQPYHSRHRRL
Chain of Triosephosphate isomerase, glycosomal (Trypanosoma cruzi) (P52270 whole entry): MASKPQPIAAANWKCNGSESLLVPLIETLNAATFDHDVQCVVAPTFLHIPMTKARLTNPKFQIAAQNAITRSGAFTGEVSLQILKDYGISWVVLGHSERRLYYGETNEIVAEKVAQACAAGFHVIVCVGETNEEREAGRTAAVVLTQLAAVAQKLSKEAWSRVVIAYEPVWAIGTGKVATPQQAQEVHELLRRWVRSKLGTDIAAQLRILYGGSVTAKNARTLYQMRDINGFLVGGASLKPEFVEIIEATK

Cc1ccc(SCC/C=N/NC2=NC(=O)C(C)S2)cc1 (configuration not stated)
IC50 (Cruzipain): 20400 nM

Nc1ccc(-c2nc3ccc(-c4ccc5nc(N)sc5c4)cc3s2)cc1
inhibition [1]: > 90% | inhibition (Trypanosoma brucei [2]): > 90%

Cc1ccc2nc(-c3ccc(N)cc3)sc2c1
Selectivity ratio [3]: 200

COc1ccccc1C(=O)c1cnc(NC2CCN(C(=O)Nc3ccccc3)CC2)nc1N
IC50 (Trypanosoma brucei [4]): 70 nM

NC(=S)N/N=C(\C=C\c1ccccc1)c1ccccc1
EC50 [5]: 70 nM

CCC1SC(N/N=C/CCSc2ccccc2)=NC1=O (configuration not stated)
IC50 (Trypanosoma cruzi [6]): 300 nM

CCCC/C(=N\NC(N)=S)c1ccccc1
EC50 (Trypanosoma cruzi [7]): 3000 nM

Nc1nc2cccc(-c3ccccc3)c2n1Cc1ccc(Cl)c(Cl)c1
Ki [8]: 7 nM

CC1SC(N/N=C/CCCSc2ccccc2)=NC1=O (configuration not stated)
IC50 (Cruzipain): 400 nM

CCCOc1cccc2nc(N)n(Cc3ccc(Cl)c(Cl)c3)c12
EC50 (Trypanosoma brucei [9]): 10000 nM | Ki [8]: 47 nM
